The source of these data is patent US20010044445A1, “AZOLE INHIBITORS OF CYTOKINE PRODUCTION” (priority 1999, published 2001).

One may read the IC50 as the concentration at which inhibition is half-maximal. Lower therefore signals greater potency. The melting point is the temperature, or range, at which the solid turns liquid.

The subject of data set [1] is Human peripheral blood mononuclear cells. Briefly: Human Concanavalin-A Proliferation Assay (Con HU Assay). The data set is classed as cell-based. The following applies: Homo sapiens, PBMC, concanavalin-A stimulated human PBMC; for inhibition at 10 µM / inhibition at 100 µM / inhibition at 1 µM: 72 h, 3 days, read-out: % Inhibition of proliferation (at concentrations of 1,10, or 100 μm); for inhibition at 10 µM: concentration 10 μm (in parentheses in the cell); for IC50: tritiated thymidine; for inhibition at 100 µM: concentration 100 μm (in parentheses in the cell); for inhibition at 1 µM: concentration 1 μm (in parentheses in the cell). In outline: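 Histopaque-isolated human PBMC (50,000/well) were pre-incubated 15 min with compounds, then stimulated with concanavalin-A at 2.5 μg/ml final for 3 days at 37 °C, 5% CO2. Proliferation measured by 6 h pulse with 0.5 μCi/well [3H]thymidine and beta counting.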

The compound `O=C(Nc1ccc(-n2nc(C(F)(F)F)cc2C(F)(F)F)cc1)c1ccc(CO)cc1` [Example 107, N-[4-[3,5-bis(trifluoromethyl)-1H-pyrazol-1-yl]phenyl]-4-(hydroxymethyl)benzamide] displayed a melting point of 213 to 214 °C. In addition, in data set [1], the inhibition at 10 µM was found to be 99% and 0.304 µM corresponded to half-maximal inhibition (IC50).

The compound `O=C(CCCl)Nc1ccc(-n2nc(C(F)(F)F)cc2C(F)(F)F)cc1` [Example 70, N-[4-[3,5-bis(trifluoromethyl)-1H-pyrazol-1-yl]phenyl]-3-chloropropanamide] yielded a melting point of 144 to 145 °C. In data set [1], the inhibition at 100 µM was 100% and the IC50 is 0.913 µM.

For `O=C(Nc1ccc(-n2nc(C(F)(F)F)cc2C(F)(F)F)cc1)c1ccccc1Oc1ccccc1` [Example 57, N-[4-[3,5-bis(trifluoromethyl)-1H-pyrazol-1-yl]phenyl]-2-phenoxybenzamide], the melting point was in the range of 108 to 109 °C. In addition, the inhibition at 1 µM in data set [1] came to 5%.

As for `O=C(Nc1ccc(F)cc1)Nc1ccc(-n2nc(C(F)(F)F)cc2C(F)(F)F)cc1` [Example 32, N-[4-[3,5-bis(trifluoromethyl)-1H-pyrazol-1-yl]phenyl]-N′-(4-fluorophenyl)urea], the melting point was 201 to 202 °C. In addition, in data set [1], the inhibition at 100 µM turned out to be 100% and 8.44 µM corresponded to half-maximal inhibition (IC50).

In turn, `N#Cc1cc(C(F)(F)F)nn1-c1ccc(NC(=O)c2ccncc2Cl)cc1` [Example 351, 3-chloro-N-(4-(5-cyano-3-(trifluoromethyl)-1H-pyrazol-1-yl)phenyl)isonicotinamide] registered a melting point of 221 to 222 °C. The compound also came in with a concentration for half-maximal inhibition (IC50) in data set [1] of 0.309 µM.

In the case of `O=C(O)c1ccc(C(=O)Nc2ccc(-n3nc(C(F)(F)F)cc3C(F)(F)F)cc2)cc1` [Example 157, 4-[[[4-[3,5-bis(trifluoromethyl)-1H-pyrazol-1-yl]phenyl]amino]carbonyl]benzoic acid], the melting point was 282 to 283 °C. In addition, in data set [1], the inhibition at 10 µM is 42% and the 50% inhibitory concentration (IC50) was 6.76 µM.

With `Cc1nnsc1C(=O)Nc1ccc(-n2nc(C(F)(F)F)cc2C)cc1` [Example 282, 4-methyl-N-[4-[5-methyl-3-(trifluoromethyl)-1H-pyrazol-1-yl]phenyl]-1,2,3-thiadiazole-5-carboxamide], the melting point lay within 51 to 53 °C. In data set [1], the inhibition at 100 µM was 100% and 0.248 µM corresponded to half-maximal inhibition (IC50).

Compound `[N-]=[N+]=Nc1ccc(C(=O)Nc2ccc(-n3nc(C(F)(F)F)cc3C(F)(F)F)cc2)cc1` [Example 60, 4-Azido-N-[4-[3,5-bis(trifluoromethyl)-1H-pyrazol-1-yl]phenyl]benzamide] gave a melting point of 182 to 184 °C. In data set [1], the inhibition at 100 µM is 100% and 0.296 µM corresponded to half-maximal inhibition (IC50).

For `Nc1cccc(C(=O)Nc2ccc(-n3nc(C(F)(F)F)cc3C(F)(F)F)cc2)c1` [Example 58, 3-Amino-N-[4-[3,5-bis(trifluoromethyl)-1H-pyrazol-1-yl]phenyl]benzamide], the melting point was 203 to 204 °C. Besides, in data set [1], the inhibition at 10 µM came to 97% and the half-maximal inhibitory concentration (IC50) came out at 0.484 µM.

The compound `CCCCCCOc1ccc(C(=O)Nc2ccc(-n3nc(C(F)(F)F)cc3C(F)(F)F)cc2)cc1` [Example 74, N-[4-[3,5-bis(trifluoromethyl)-1H-pyrazol-1-yl]phenyl]-4-(hexyloxy)benzamide] came in with a melting point of 153 to 155 °C. Besides, in data set [1], the inhibition at 100 µM amounted to 83% and the IC50 amounted to 22.8 µM.

`O=C(Nc1ccc(-n2nc(C(F)(F)F)cc2C(F)(F)F)cc1)C1CC=CCC1` (stereo not shown) [Example 29, N-[4-[3,5-bis(trifluoromethyl)-1H-pyrazol-1-yl]phenyl]-3-cyclohexene-1-carboxamide] yielded a melting point of 177 to 178 °C. For the same compound, in data set [1], the inhibition at 10 µM stood at 100% and the IC50 is 0.051 µM.

In turn, `O=C(Nc1ccc(-n2nc(C(F)(F)F)cc2C(F)(F)F)cc1)c1cccc(I)c1` [Example 25, N-[4-[3,5-bis(trifluoromethyl)-1H-pyrazol-1-yl]phenyl]-3-iodobenzamide] had a melting point of 192 to 193 °C. Further, in data set [1], the inhibition at 10 µM stood at 100% and half-maximal inhibition (IC50) was put at 0.396 µM.

On to `O=C(Nc1ccc(-n2nc(C(F)(F)F)cc2C(F)(F)F)cc1)c1cccc(Cl)c1F` [Example 214, N-[4-[3,5-bis(trifluoromethyl)-1H-pyrazol-1-yl]phenyl]-3-chloro-2-fluorobenzamide], for which the melting point fell in the range of 113 to 116 °C. Besides, in data set [1], the inhibition at 10 µM was determined as 100% and the IC50 came to 0.068 µM.

Take `CC(C)=CC(=O)Nc1ccc(-n2nc(C(F)(F)F)cc2C(F)(F)F)cc1` [Example 102, N-[4-[3,5-bis(trifluoromethyl)-1H-pyrazol-1-yl]phenyl]-3-methyl-2-butenamide]: the melting point fell in the range of 150 to 152 °C. Also, in data set [1], the inhibition at 100 µM was determined as 100% and half-maximal inhibition (IC50) was put at 0.503 µM.

In turn, `O=C(Cc1ccc(Cl)cc1)Nc1cccc(-n2nc(C(F)(F)F)cc2C(F)(F)F)c1` [Example 197, N-[3-[3,5-bis(trifluoromethyl)-1H-pyrazol-1-yl]phenyl]-4-chlorobenzeneacetamide] showed a melting point of 209 to 211 °C. Moreover, the inhibition at 1 µM in data set [1] stood at 1%.

As to `Cc1ccccc1C(=O)Nc1ccc(-n2nc(C(F)(F)F)cc2C(F)(F)F)cc1` [Example 96, N-[4-[3,5-bis(trifluoromethyl)-1H-pyrazol-1-yl]phenyl]-2-methylbenzamide], the melting point was in the range of 165 to 167 °C. In data set [1], the inhibition at 100 µM amounted to 99% and the IC50 was determined as 0.338 µM.

Compound `O=C(Nc1ccc(-n2nc(C(F)(F)F)cc2C(F)(F)F)cc1)c1ccncc1` [Example 116, N-[4-[3,5-bis(trifluoromethyl)-1H-pyrazol-1-yl]phenyl]-4-pyridinecarboxamide] came in with a melting point of 156 to 157 °C. Moreover, in data set [1], the inhibition at 10 µM is 100% and the concentration for half-maximal inhibition (IC50) was found to be 0.154 µM.

The compound `COc1cc(C(F)(F)F)nn1-c1ccc(NC(=O)c2cccnc2F)cc1` [Example 317, 2-fluoro-N-(4-(5-methoxy-3-(trifluoromethyl)-1H-pyrazol-1-yl)phenyl)nicotinamide] returned a melting point of 153 to 154 °C. The compound also had a half-maximal inhibitory concentration (IC50) in data set [1] of 0.186 µM.

In the case of `O=C(Nc1ccc(-n2nc(C(F)(F)F)cc2C(F)(F)F)cc1)c1cccc(F)c1` [Example 146, N-[4-[3,5-bis(trifluoromethyl)-1H-pyrazol-1-yl]phenyl]-3-fluorobenzamide], the melting point lay in the range of 148 to 151 °C. For the same compound, in data set [1], the inhibition at 100 µM came out at 98% and half-maximal inhibition (IC50) required 0.269 µM.

As to `O=C(Nc1ccc(-n2nc(C(F)(F)F)cc2C(F)(F)F)cc1)c1ccc(F)c(F)c1F` [Example 226, N-[4-[3,5-bis(trifluoromethyl)-1H-pyrazol-1-yl]phenyl]-2,3,4-trifluorobenzamide], the melting point lay in the range of 122 to 124 °C. Further, in data set [1], the inhibition at 10 µM worked out at 100% and the midpoint of inhibition, the IC50, lay at 0.043 µM.

Regarding `N#Cc1ccccc1NC(=O)c1ccc(-n2nc(C(F)(F)F)cc2C(F)(F)F)cc1` [Example 188, 4-[3,5-Bis(trifluoromethyl)-1H-pyrazol-1-yl]-N-(2-cyanophenyl)benzamide], the melting point was in the range of 203 to 205 °C. Further, in data set [1], the inhibition at 10 µM came to 87% and the midpoint of inhibition, the IC50, lay at 0.485 µM.

Compound `O=C(Nc1ccc(-n2nc(C(F)(F)F)cc2C(F)(F)F)cc1)c1cc(F)cc(F)c1F` [Example 231, N-[4-[3,5-bis(trifluoromethyl)-1H-pyrazol-1-yl]phenyl]-2,3,5-trifluorobenzamide] registered a melting point of 169 to 170 °C. In data set [1], the inhibition at 10 µM turned out to be 100% and the half-inhibitory concentration (IC50) was 0.025 µM.

Regarding `Cc1c(NC(=O)Nc2ccc(-n3nc(C(F)(F)F)cc3C(F)(F)F)cc2)cccc1[N+](=O)[O-]` [Example 40, N-[4-[3,5-bis(trifluoromethyl)-1H-pyrazol-1-yl]phenyl]-N′-(2-methyl-3-nitrophenyl)urea], the melting point lay within 235 to 236 °C. Also, the inhibition at 1 µM in data set [1] came out at 36%.

With `Cc1noc(C)c1C(=O)Nc1ccc(-n2ccc(C(F)(F)F)n2)cc1` [Example 287, 3,5-dimethyl-N-[4-[3-(trifluoromethyl)-1H-pyrazol-1-yl)phenyl]-4-isoxazolecarboxamide], the melting point lay within 177 to 178 °C. Also, the inhibition at 1 µM in data set [1] amounted to 24%.

The compound `Cc1noc(C)c1C(=O)Nc1ccc(-n2nc(C(F)(F)F)cc2C(F)(F)F)cc1C(F)(F)F` [Example 278, N-[4-[3,5-bis(trifluoromethyl)-1H-pyrazol-1-yl]-2-(trifluoromethyl)phenyl]-3,5-dimethyl-4-isoxazolecarboxamide] returned a melting point of 145 to 146 °C. Moreover, the inhibition at 1 µM in data set [1] was found to be 4%.

The compound `FC(F)(F)c1cc(C(F)(F)F)n(-c2ccc(NCc3ccccc3Cl)cc2)n1` [Example 82, N-[4-[3,5-bis(trifluoromethyl)-1H-pyrazol-1-yl]phenyl]-2-chlorobenzenemethanamine] registered a melting point of 240 °C. Further, in data set [1], the inhibition at 100 µM came to 100% and half-maximal inhibition (IC50) required 0.468 µM.

Consider `O=C(Nc1ccc(-n2nc(C(F)(F)F)cc2Cl)cc1)c1ccncc1F` [Example 328, N-(4-(5-chloro-3-(trifluoromethyl)-1H-pyrazol-1-yl)phenyl)-3-fluoroisonicotinamide], for which the melting point fell in the range of 128 to 129 °C. Further, the midpoint of inhibition in data set [1], the IC50, lay at 0.075 µM.
